Laboratory results published in patent US8946301B2, “Targeting of T-lymphocytes to treat amyotrophic lateral sclerosis” (ALS Therapy Development Institute, priority 2011, dated 2015).

Columns and labels:
[1] = test system: lymphocytes in peritoneal lavage fluid; experiment: Lymphocyte cell counts in peritoneal lavage fluid by FACS; format: in vivo, mouse; details: vs untreated SOD1
Method: FIG. 4 is a graph showing cell counts in peritoneal lavage fluid. SOD1 animals received a loading dose of 2.5 mg/kg fingolimod orally, then oral 1.8 mg/kg once weekly for 3 weeks. Lymphocyte counts were measured via FACS for various cell surface antigens in the peritoneal lavage fluid.
SOD1 mice received a loading dose of 2.5 mg/kg fingolimod orally, then oral 1.8 mg/kg once weekly for 3 weeks. After sacrifice, several measurements were performed. To determine the lymphocyte cell count in peritoneal lavage fluid, peritoneal lavage fluid was removed after sacrifice of the animals and the peritoneal lavage fluid was subjected to fluorescent activated cell sorting for each of the cell surface antigens: CD11b, CD28, CD3, CD4, CD86, […], and LY6G. Lymphocyte cell count from SOD1 fingolimod treated mice was compared to untreated SOD1 mice in FIG. 4.

[2] = test system: experimental autoimmune neuritis; details: Zhang et al. 2008, cited from earlier work
blood cells = experiment: Complete blood cell counts in whole blood; format: in vivo, mouse; details: vs untreated SOD1
Method: FIG. 6 is a graph showing complete blood cell counts in whole blood. SOD1 animals received a loading dose of 2.5 mg/kg fingolimod orally, then oral 1.8 mg/kg once weekly for 3 weeks. Complete blood cell counts included basophils (BAS), eosinophils (EOS), monocytes (MON), lymphocytes (LYM), neutrophils (NEU), and white blood cells (WBC).
Whole blood counts were also measured. Upon sacrifice, blood was removed and complete blood cell counts were performed.

G93A-SOD1 mice = experiment: Disease progression, onset and survival in the SOD1 ALS mouse model; format: in vivo; details: vs untreated SOD1
Source text: FIGS. 7A, 7B, 7C, and 7D are charts showing symptomatic neurological disease progression in untreated SOD1 mice and SOD1 fingolimod treated mice. FIGS. 7A and 7C show the results for SOD1 mice having a low number (14-20) of copies of the transgene. FIGS. 7B and 7D show the results for SOD1 mice having a high number (20-25) copies of the transgene. Neurological disease progression was defined as the average neurological score over time for male SOD1 mice. For each chart, the lower line represents the SOD1 fingolimod treated mice; the upper line (i.e., having lower probability at each age in days, Dage) represents the untreated SOD1 mice.
FIG. 8A is a chart comparing disease onset probability as assessed by the Cox Proportional Hazards model in untreated SOD1 and SOD1 fingolimod treated mice. The black right line represents the SOD1 fingolimod treated mice; the gray left line represents the untreated SOD1 mice.
FIG. 8B is a chart comparing survival as assessed by the Cox Proportional Hazards model in untreated SOD1 mice and SOD1 fingolimod treated mice for individual animals. The black right line represents the SOD1 fingolimod treated mice; the gray left line represents the untreated SOD1 mice.
FIG. 9A is a chart showing disease onset probability as calculated by the Weibull method versus time in untreated SOD1 mice and SOD1 fingolimod treated mice. The right line represents the SOD1 fingolimod treated mice; the left line represents the untreated SOD1 mice.
FIG. 9B is a chart showing survival as calculated by the Weibull method versus time in untreated SOD1 mice and SOD1 fingolimod treated mice. The right line represents the SOD1 fingolimod treated mice; the left line represents the untreated SOD1 mice.
To assess the impact of reducing T lymphocyte cell proliferation on disease progression in the SOD1 preclinical animal model, fingolimod was administered to SOD1 mice and parameters of disease progression were measured, including daily measurements of neurological severity score, as well as T lymphocyte cell proliferation.
Neurological scores for both hind legs were assessed daily for each mouse from 50 days of age. The neurological score employed a scale of 0 to 4 that was developed by observation at ALSTDI (Scott et al., 2008). […] Animals were assigned a score of 2 when the toes curled under at least twice during walking a distance of 12 inches, or any part of the foot was dragging along the cage bottom/table. Animals were assigned a score of 3 when they had rigid paralysis or minimal joint movement, or a foot was not being used for forward motion. Animals were assigned a score of 4 when they […] within 30 seconds after being laid on either side. At the point where at least one hind leg was scored as 2, food pellets were left on the cage bedding to permit easy access to food. If both hind legs were scored as 2, Nutra-Gel® (Bio-Serve #S4798) was provided as food in addition to food pellets placed on the cage bedding and a long sipper tube was placed on the water bottle.
Date and cause of death were recorded for each mouse. For humane reasons, animals were closely monitored and sacrificed as moribund prior to actual death using criteria for severe moribundity. To determine duration of survival reliably and humanely, the moribund state, defined as the inability of mice to right themselves 30 seconds after being placed on a side (a neurological score of 4) was used. The moribund mice were scored as “dead,” and were euthanized using carbon dioxide asphyxiation.
To determine the impact of reducing T lymphocyte cell proliferation on disease progression in the SOD1 preclinical animal model, a Weibull analysis was performed on the data from the animal study described in Examples 3-5.

CD45R positive cells = experiment: Circulating CD45R positive cells in whole blood of SOD1 mice; format: in vivo, mouse; details: SOD1 animals, high and low dose groups
Method: The following dosage regimen was used to determine the dose dependent effects of fingolimod in SOD1 mice: • Cohorts: • 1) SOD1 Fingolimod Treated “High Dose” (Load 2.5 mg/kg, 1.8 mg/kg Oral q7d) • 4 hour post final dose harvest • 7 day post final dose harvest • 2) SOD1 Fingolimod Treated “Low Dose” (Load 0.44 mg/kg, 0.32 mg/kg Oral q7d) • 4 hour post final dose harvest • 7 day post final dose harvest • 3) SOD1 Vehicle Control • 4 hour post final dose harvest • 7 day post final dose harvest
The predicted plasma fingolimod load for both the high dose and the low dose regimes were determined, see FIGS. 2A and 2B. Tissues were harvested 4 hours after the third fingolimod dose. This time point was selected to best characterize the behavior of lymphocytes in animals treated with fingolimod when circulating levels of the drug are near peak concentration.

[3] = load 2.5 mg/kg oral then 1.8 mg/kg once weekly for 3 weeks

Compound: CCCCCCCCc1ccc(CCC(N)(CO)CO)cc1 [fingolimod, 2-amino-2-(4-octylphenethyl)propane-1,3-diol]
- lymphocyte count, CD11b [1, 3]: decreased lymphocyte count
- lymphocyte count, CD4 ([1]; same regimen): decreased lymphocyte count
- lymphocyte count, CD28 ([1]; same regimen): decreased lymphocyte count
- lymphocyte count, CD86 ([1]; same regimen): decreased lymphocyte count
- lymphocyte count, CTLA34 ([1]; same regimen): decreased lymphocyte count
- lymphocyte count, LY6G ([1]; same regimen): decreased lymphocyte count
- severity and duration of experimental autoimmune neuritis [2]: reduced the severity and duration
- paraparesis ([2]; if administrated with immunization): suppress paraparesis
- basophils (BAS) count (blood cells; [3]): decreased numbers
- eosinophils (EOS) count (blood cells; same regimen): decreased numbers
- lymphocytes (LYM) count (blood cells; same regimen): decreased numbers
- monocytes (MON) count (blood cells; same regimen): decreased numbers
- neutrophils (NEU) count (blood cells; same regimen): no significant change
- white blood cells (WBC) count (blood cells; same regimen): decreased numbers
- disease onset probability (Weibull method) (G93A-SOD1 mice; SOD1 mice): reduced disease onset probability
- survival probability (Weibull method) (G93A-SOD1 mice; SOD1 mice): increased survival probability
- neurological score over time (G93A-SOD1 mice; male SOD1 mice, high copy number (20-25 copies)): improvement
- neurological score over time (G93A-SOD1 mice; male SOD1 mice, low copy number (14-20 copies)): improvement
- disease onset probability (Cox Proportional Hazards model) (G93A-SOD1 mice; male SOD1 mice): delayed onset of disease
- survival (Cox Proportional Hazards model) (G93A-SOD1 mice; male SOD1 mice): extended survival
- circulating CD45R positive cells in whole blood (in words) (CD45R positive cells): fewer
